One assay deals with T1, PRMT5/MEP50 complex (Homo sapiens, UniProt O14744).
T1 construct: purchased Reaction Biology Corporation
As to the kind of experiment: PRMT5:MEP50 FlashPlate Assay (histone H4 peptide methylation). The format is biochemical. The conditions noted are these: 40 nM H4 (1-15) peptide, 1 μM SAM. How it is done: The PRMT5 inhibitory activity of compounds of the present invention was determined using a PRMT5: MEP50 FlashPlate Assay and a PRMT5: MEP50 HotSpot Assay (Reaction Biology Corporation).
The assay uses purified human, PRMT5 enzyme to convert S-adenosyl-L-[methyl-3H]methionine plus histone H4 L-arginine to S-adenosyl-L-homocysteine plus histone H4 [methyl-3H]-L-arginine. The assay was carried out using Streptavidin-coated FlashPlates (Perkin Elmer), which contained a scintillant embedded in the plastic of the plate. The histone H4 peptide substrate was conjugated with biotin, which binds to the streptavidin-coated well of the plate, placing the H4 peptide in close proximity to the side well and the scintillant. The transfer of the tritiated methyl group from S-adenosyl-L-[methyl-3H]methionine to the bound histone H4 peptide generated a radiolabeled histone H4, which was quantitated by measuring in a scintillation counter to determine the activity of PRMT5 enzyme in the presence and absence of compound. […] Briefly, compounds of the present invention were solubilized in 100% DMSO at a highest concentration of 10 mM. […] Control samples lacking compound, PRMT5/MEP50 complex or various reaction components also were prepared and processed in parallel with compound test samples. SAH was used as a positive control for assay validation. To measure PRMT5 inhibitory activity, 3 nM PRMT5/MEP50 complex (Reaction Biology Corporation) was preincubated with test compound in assay buffer containing 40 nM histone H4 peptide (amino acids 1-15)-Biotin conjugate for 20 min at room temperature. The enzymatic reaction was initiated by adding 1 μM tritiated S-adenosyl methionine (final concentration) and the reaction is allowed to proceed for 20 min. The reaction was stopped and the amount of bound, tritiated H4 peptide in each sample was determined using a scintillation counter.

In a further assay the target is T2, PRMT5-MEP50 (Homo sapiens, UniProt O14744).
T2 construct: biotin (in vivo biotinylated)
As to the kind of experiment: SPR binding assay (PRMT5.MTA and PRMT5·SAM surfaces). The conditions noted are these: steady-state fit. The method, then:
In vivo biotinylated PRMT5-MEP50 was diluted to […] in 25 mM Bicine pH 7.6, 100 mM NaCl, 1 mM TCEP, and 0.05% Tween-20 and injected at 5 μl/min flow rate into flow cell 2 (FC2) of a Series S Sensor Chip SA (Cytiva) in a Biacore T200 or in a Biacore 8K plus (Cytiva). SPR screening was performed in MTA running buffer (25 mM Bicine pH 7.6, 100 mM NaCl, 1 mM TCEP, 20 µM MTA, 0.05% Tween-20 and 2% DMSO). The biotinylated PRMT5-MEP50 surface was equilibrated with MTA running buffer for 12 hours prior to the start. […] Subsequently, compound titration was repeated in SAM-running buffer (25 mM Bicine pH 7.6, 100 mM NaCl, 1 mM TCEP, 20 μM SAM, 0.05% Tween-20, and 2% DMSO). […] After double referencing, the steady-state response was extracted for each fragment concentration and was fit to the Langmuir isotherm equation to determine the equilibrium dissociation constant (KD).
(In general: In SPR one partner is held on a chip, and binding of the other changes the refractive index at the surface.)

Where [1] appears, read: PRMT5·SAM surface, SAM running buffer (20 μM SAM), read-out: KD SAM.
Where [2] appears, read: PRMT5.MTA surface, MTA running buffer (20 µM MTA), read-out: KD MTA.

Where a name gives a salt, the structure may show the parent alone. Read-outs that look alike come from different tables or passages of the source.

T2 sequence (O14744 whole entry): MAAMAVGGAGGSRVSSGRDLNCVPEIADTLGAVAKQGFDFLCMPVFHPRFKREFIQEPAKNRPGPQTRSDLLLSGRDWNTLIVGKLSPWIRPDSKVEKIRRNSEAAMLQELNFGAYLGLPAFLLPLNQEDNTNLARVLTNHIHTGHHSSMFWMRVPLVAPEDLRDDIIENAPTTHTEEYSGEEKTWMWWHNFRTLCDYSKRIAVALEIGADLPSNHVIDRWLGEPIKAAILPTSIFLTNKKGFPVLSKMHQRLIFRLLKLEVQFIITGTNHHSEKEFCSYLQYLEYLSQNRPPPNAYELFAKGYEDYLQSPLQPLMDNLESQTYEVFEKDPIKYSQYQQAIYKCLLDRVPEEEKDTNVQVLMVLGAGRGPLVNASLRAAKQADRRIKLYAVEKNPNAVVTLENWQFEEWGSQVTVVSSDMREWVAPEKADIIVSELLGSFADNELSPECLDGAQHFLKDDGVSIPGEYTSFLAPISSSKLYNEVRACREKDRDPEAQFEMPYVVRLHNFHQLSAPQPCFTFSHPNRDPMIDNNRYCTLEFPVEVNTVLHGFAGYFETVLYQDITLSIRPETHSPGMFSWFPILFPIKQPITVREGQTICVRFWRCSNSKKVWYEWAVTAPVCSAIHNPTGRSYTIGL
T2 sequence (Q9BQA1 whole entry partner): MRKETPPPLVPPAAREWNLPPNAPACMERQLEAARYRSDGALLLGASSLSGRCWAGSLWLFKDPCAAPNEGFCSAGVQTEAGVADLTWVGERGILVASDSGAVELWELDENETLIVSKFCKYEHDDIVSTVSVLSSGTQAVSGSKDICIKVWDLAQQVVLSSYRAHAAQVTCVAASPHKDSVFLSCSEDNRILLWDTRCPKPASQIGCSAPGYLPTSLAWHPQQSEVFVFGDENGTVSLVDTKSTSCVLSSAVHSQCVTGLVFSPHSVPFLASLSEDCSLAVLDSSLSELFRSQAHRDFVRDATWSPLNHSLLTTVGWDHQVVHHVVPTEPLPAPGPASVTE
T1 sequence (O14744 2-637 limits assumed): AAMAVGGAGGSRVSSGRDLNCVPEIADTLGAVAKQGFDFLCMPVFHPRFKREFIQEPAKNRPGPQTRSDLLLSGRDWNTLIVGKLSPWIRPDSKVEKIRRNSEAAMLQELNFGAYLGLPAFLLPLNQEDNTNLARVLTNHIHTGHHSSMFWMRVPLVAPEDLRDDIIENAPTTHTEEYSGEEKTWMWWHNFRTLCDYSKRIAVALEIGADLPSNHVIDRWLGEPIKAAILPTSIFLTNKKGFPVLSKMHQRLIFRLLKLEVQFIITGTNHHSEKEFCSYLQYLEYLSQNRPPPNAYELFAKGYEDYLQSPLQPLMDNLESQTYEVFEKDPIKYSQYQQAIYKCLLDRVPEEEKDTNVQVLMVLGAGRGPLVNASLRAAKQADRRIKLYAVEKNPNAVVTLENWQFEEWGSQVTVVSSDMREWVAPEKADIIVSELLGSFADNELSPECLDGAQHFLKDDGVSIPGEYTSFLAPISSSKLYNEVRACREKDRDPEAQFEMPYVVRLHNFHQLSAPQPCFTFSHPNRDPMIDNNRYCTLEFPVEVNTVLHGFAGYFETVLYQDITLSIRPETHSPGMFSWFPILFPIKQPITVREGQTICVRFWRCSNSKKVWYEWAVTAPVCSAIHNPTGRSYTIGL
T1 sequence (Q9BQA1 2-342 partner limits assumed): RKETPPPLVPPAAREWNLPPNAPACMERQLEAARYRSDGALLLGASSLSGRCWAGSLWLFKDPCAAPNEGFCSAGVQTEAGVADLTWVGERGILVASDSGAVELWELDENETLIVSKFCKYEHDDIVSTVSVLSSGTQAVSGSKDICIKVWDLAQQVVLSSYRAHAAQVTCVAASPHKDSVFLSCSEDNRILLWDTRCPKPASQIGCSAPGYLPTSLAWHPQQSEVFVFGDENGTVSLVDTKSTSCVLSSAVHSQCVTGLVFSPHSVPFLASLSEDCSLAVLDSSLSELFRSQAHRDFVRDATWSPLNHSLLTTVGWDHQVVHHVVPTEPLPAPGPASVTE

`Nc1nc2ncccc2n1Cc1ccccc1` [Example 5-2, 1-benzylimidazo[4,5-b]pyridin-2-amine hydrochloride]: the IC50 (in general, the concentration at which inhibition is half-maximal) on PRMT5/MEP50 complex (IC50 + 2 μM MTA, plus 2 μM MTA) is 76.2 µM; at PRMT5/MEP50 complex (absence of MTA, read-out: IC50), over 300 µM. Moreover, the Kd (commonly the free concentration of one partner at which half of the binding sites on the other are occupied at equilibrium, for simple one-to-one binding) on PRMT5-MEP50 (setting [1]) was determined as 176 µM.

Take `Cn1ncc(-c2cc(Cl)cc3c2nc(N)n3C)c1-c1ccccc1C#N` [Example 6-1, 2-[4-(2-amino-6-chloro-1-methyl-benzimidazol-4-yl)-2-methyl-pyrazol-3-yl]benzonitrile]: the IC50 is 14 µM at PRMT5/MEP50 complex (IC50 + 2 μM MTA, plus 2 μM MTA) and over 300 µM on PRMT5/MEP50 complex (absence of MTA, read-out: IC50). For the same compound, the figures for the Kd on PRMT5-MEP50 (setting [2]) and at PRMT5-MEP50 (setting [1]) were 0.322 µM and 0.816 µM, respectively.

Consider `Cc1cc(-c2cnn(C)c2-c2ccccc2C#N)c2nc(N)n(C)c2c1` [Example 6-2, 2-[4-(2-amino-1,6-dimethyl-benzimidazol-4-yl)-2-methyl-pyrazol-3-yl]benzonitrile hydrochloride], for which the half-maximal inhibitory concentration (IC50) on PRMT5/MEP50 complex (IC50 + 2 μM MTA, plus 2 μM MTA) was 29.3 µM; on PRMT5/MEP50 complex (absence of MTA, read-out: IC50) it was over 300 µM. The Kd at PRMT5-MEP50 (setting [2]) is 0.047 µM.

The values are drawn from patent US20260109709A1 (MIRATI THERAPEUTICS, INC., priority 2021, published 2026).
